According to patent US20230136702A1, “Inhibitors of Human Herpesviruses” (The Governors of the University of Alberta, priority 2020, published 2023):
Where two headings read alike, the source gives them in different places.

What was measured:
[1] = target: T1, HCMV DNA polymerase (UL54) (Human cytomegalovirus, UniProt P08546); assay: HCMV DNA polymerase enzyme inhibition assay (ProFoldin, fluorescence); type: biochemical; conditions: 37° C., duplicate, max 40 μM
T1 construct: 6His (C); made in house; host or cells: Sf9 insect cells (baculovirus, pFastBac)
Protocol: The HCMV DNA polymerase assay was developed by ProFoldin. The assay detects the formation of DNA from the DNA polymerase reaction in the presence of a DNA template, dATP and dGTP. The formation of the DNA is detected by using a fluorescence method. The fluorescence intensity increases when DNA is generated by the enzyme reaction.
A time-course experiment was performed aside the enzyme inhibition assay to ensure the assay was sensitive to the enzyme inhibition. The wells for the time-course experiment contained 1 μL of DMSO and the same reaction mixture as that in the enzyme inhibition assay. The time-course data varied between plates. The reactions were stopped when the fluorescence reached a value of about 3700 for each plate.
Exemplary solid compounds (e.g., as described herein) were dissolved in DMSO to make […] stock solutions. PFA (phosphonoformic acid or phosphonomethanoic acid) was used as a positive control. The compound mother plates were prepared at 50× concentrated compound concentrations with a 2-fold serial dilution. All the exemplary compounds except PFA were diluted in DMSO. PFA was diluted in water. The maximum compound concentration was 2 mM that gave the final concentration of 40 μM in the assay. One microliter of the 50× stock solutions was transferred into the assay plates. Three copies of assay plates were prepared, two for HCMV DNA polymerase assay and one for compound background control.
The following is the protocol for enzyme inhibition performed at 37° C.:
1. Prepared a premix composed of 35347 μL of H2O, 5220 μL of 10× assay buffer and 149 μL of 350×HCMV DNA polymerase.
2. Added 39 μL of the premix into the wells with 1 μL of the compound. Incubated the mixture for at least 5 min.
3. Added 10 μL of 5×dNTP (0.1 mM), 5×DNA template solutions into each well and incubated the solution until the fluorescence value reached a value about 3700 for the DMSO-only control wells.
4. Added 50 μL of the 1× dye into the wells.
5. Read the fluorescence at emission wavelength of 535 nm and excitation wavelength of 485 nm.
For the compound background reading, added 99 μL of water in the wells with 1 μL of compounds and read the fluorescence. […] The 0% inhibition value F0 was from the wells with DMSO (no inhibitor).
The background values were subtracted from the fluorescence reading to get the net fluorescence values. The net fluorescence values were used for calculation of the percentage inhibition.
The assay was performed in duplicate for the test article at […], 1.25, 0.625, 0.313, 0.156 and 0.078 μM. The IC50 curves were obtained by fitting the percentage inhibition values with the compound concentrations using Prism GraphPad software.

[2] = test system: HCMV US3-6-EGFP-HCMV-AD169 strain; assay: In vitro inhibitory (antiviral) activity against HCMV, GFP reporter in MRC5 cells; type: cell-based, Human cytomegalovirus (HCMV); conditions: Human betaherpesvirus 5, AD169, MRC5, 96 h, read-out: HCMV Antiviral EC50 range
Protocol: (§1) Exemplary compounds (e.g., as described herein) were prepared as 20 mM stock solutions with DMSO. Reference compound was ganciclovir (Sigma). Compounds were tested at 8 concentrations, 3-fold serial dilutions, in duplicate for EC50 and CC50 determinations. The highest testing concentrations of the exemplary compounds and reference compound were 40 μM and 100 μM, respectively. The final concentration of DMSO in the cell culture was 0.5%.
HCMV US3-6-EGFP-HCMV-AD169 strain was obtained from Institute Pasteur of Shanghai, CAS. The virus contains GFP as a reporter of the viral replication.
(§2) MRC5 cells (ATCC CCL-171) was obtained from the ATCC and maintained in the EMEM (Sigma) supplemented with 10% FBS (HyClone), 1% L-glutamine (Gibco), 1% NEAA (Gibco), and 1% PS (Hyclone). Reagent:
In 96-well plates, MRC5 cells were seeded at 20,000 cells per well and cultured at 37° C. and 5% C02 overnight. Next day, compounds (8 concentrations, 3-fold dilutions, in duplicate) and US3-6-EGFP-HCMV-AD169 (MOI=0.1) were added to the cells. The resulting cultures were incubated at 37° C. and 5% C02 for 4 days. Fluorescence intensity was determined by Acumen Cellista (TTP LabTech). The antiviral activity of each compound was calculated based on the inhibition of expression of GFP at each concentration normalized by the cell control (cells without virus infection or compound treatment).
(§3) Antiviral activity and cytotoxicity of the compounds were expressed as % Inhibition and % Viability, respectively, and calculated with the formulas below:
Inhibition (%)=100−(Raw dataCPD−AverageCC)/(AverageVC−AverageCC)*100
(§4) Raw dataCPD indicates the values of the compound-treated wells; AverageVC, AverageCC and AverageMC indicate the average values of the virus control (cells infected with virus, without compound treatment), cell control and medium control wells, respectively.
(§5) EC50 and CC50 values were calculated using the GraphPad Prism software.

[3] = Cytotoxicity in MRC5 cells without virus infection (CCK8); type: cell-based; conditions: human
Protocol: as §1, §2
Cytotoxicity of the compounds was assessed under the same conditions, but without virus infection, in parallel. Cell viability was measured with CCK8 following the manufacturer's manual. CC50 values were then calculated based on cytotoxicity at the test concentrations normalized by the medium control (medium only).
as §3
Viability (%)=(Raw dataCPD−AverageMC)/(AverageCC−AverageMC)*100
as §4, §5

[4] = target: T2, hERG potassium channel (Homo sapiens, UniProt Q12809); assay: Inhibition of hERG potassium channel, automated patch clamp (SyncroPatch 384PE) in CHO cells; type: cell-based
T2 construct: host or cells: CHO cells stably expressing hERG
Protocol: This automated patch clamp method (SyncroPatch 384PE) CHO cells stably expressing hERG potassium channels from Sophion Biosciences were used for this test.
The cells were cultured in a humidified and air-controlled (5% C02) incubator at 37° C.
The CHO cells which were at least two days after plating and more than 75% confluent would be used for experiments. Before testing, cells were harvested using TrypLE and resuspended in the physiological solution at the room temperature.
For the electrophysiological recordings the following solutions were used (Table 5). The physiological solution and external solution were prepared at least one month. The intracellular solution was prepared in batches aliquoted, and stored at 4° C. until used.
Exemplary compounds (e.g., as described herein) were dissolved in 100% DMSO to obtain stock solutions for different test concentrations. Then the stock solutions were further diluted into external solution to achieve final concentrations for testing. Visual check for precipitation was conducted before testing. Final DMSO concentration in external solution was not more than 0.30% for the compounds.
From this holding potential of −80 mV, the voltage was first stepped to −50 mV for 80 ms for leak subtraction, and then stepped to +20 mV for 4800 ms to open hERG channels. After that, the voltage was stepped back down to −50 mV for 5000 ms, causing a “rebound” or tail current, which was measured and collected for data analysis. Finally, the voltage was stepped back to the holding potential (−80 mV, 1000 ms). This voltage command protocol was repeated every 20000 msec. This command protocol was performed continuously during the test (vehicle control and test compound).
hERG SyncroPatch assay was conducted at room temperature. The Setup, Prime Chip, Catch and Seal Cells, Amplifier Settings, Voltage and Application Protocols were established with Biomek Software (Nanion).
One addition of 40 μL of the vehicle was applied, followed by 300s for a baseline period. Then the doses of exemplary test compounds were added with 40 μL. The exposure of test compound at each concentration was no less than 300s. […] Five concentrations (0.494 μM, 1.48 μM, 4.44 μM, 13.33 μM and 40.00 μM) were tested for each compound. Minimum 2 replicates per concentration were obtained.
Within each well recording, percent of control values were calculated for each test compound concentration current response based on peak current in presence of reference control (current response/peak current)×100%. The Dose-Response curves were fit to the standard Hill equation as shown below:
Ipost cpd/Ipre cpd=Bottom+(Top−Bottom)/(1+10^((Log IC50−X)*HillSlope))
Where X is the logarithm of concentration, Ipost cpd/Ipre cpd is the normalized peak current amplitude, Top is 1 and Bottom is equal to 0.
Curve-fitting and IC50 calculations were performed by GraphPad Prism 5.0. If the inhibition obtained at the lowest concentration tested was over 50%, or at the highest concentration tested was less than 50%, we reported the IC50 as less than lowest concentration, or higher than highest concentration, respectively.

[5] = CHO cells stably expressing hERG, room temperature, 0.494-40.00 μM, read-out: CHO-hERG Activity Range

T1 sequence (P08546 whole entry): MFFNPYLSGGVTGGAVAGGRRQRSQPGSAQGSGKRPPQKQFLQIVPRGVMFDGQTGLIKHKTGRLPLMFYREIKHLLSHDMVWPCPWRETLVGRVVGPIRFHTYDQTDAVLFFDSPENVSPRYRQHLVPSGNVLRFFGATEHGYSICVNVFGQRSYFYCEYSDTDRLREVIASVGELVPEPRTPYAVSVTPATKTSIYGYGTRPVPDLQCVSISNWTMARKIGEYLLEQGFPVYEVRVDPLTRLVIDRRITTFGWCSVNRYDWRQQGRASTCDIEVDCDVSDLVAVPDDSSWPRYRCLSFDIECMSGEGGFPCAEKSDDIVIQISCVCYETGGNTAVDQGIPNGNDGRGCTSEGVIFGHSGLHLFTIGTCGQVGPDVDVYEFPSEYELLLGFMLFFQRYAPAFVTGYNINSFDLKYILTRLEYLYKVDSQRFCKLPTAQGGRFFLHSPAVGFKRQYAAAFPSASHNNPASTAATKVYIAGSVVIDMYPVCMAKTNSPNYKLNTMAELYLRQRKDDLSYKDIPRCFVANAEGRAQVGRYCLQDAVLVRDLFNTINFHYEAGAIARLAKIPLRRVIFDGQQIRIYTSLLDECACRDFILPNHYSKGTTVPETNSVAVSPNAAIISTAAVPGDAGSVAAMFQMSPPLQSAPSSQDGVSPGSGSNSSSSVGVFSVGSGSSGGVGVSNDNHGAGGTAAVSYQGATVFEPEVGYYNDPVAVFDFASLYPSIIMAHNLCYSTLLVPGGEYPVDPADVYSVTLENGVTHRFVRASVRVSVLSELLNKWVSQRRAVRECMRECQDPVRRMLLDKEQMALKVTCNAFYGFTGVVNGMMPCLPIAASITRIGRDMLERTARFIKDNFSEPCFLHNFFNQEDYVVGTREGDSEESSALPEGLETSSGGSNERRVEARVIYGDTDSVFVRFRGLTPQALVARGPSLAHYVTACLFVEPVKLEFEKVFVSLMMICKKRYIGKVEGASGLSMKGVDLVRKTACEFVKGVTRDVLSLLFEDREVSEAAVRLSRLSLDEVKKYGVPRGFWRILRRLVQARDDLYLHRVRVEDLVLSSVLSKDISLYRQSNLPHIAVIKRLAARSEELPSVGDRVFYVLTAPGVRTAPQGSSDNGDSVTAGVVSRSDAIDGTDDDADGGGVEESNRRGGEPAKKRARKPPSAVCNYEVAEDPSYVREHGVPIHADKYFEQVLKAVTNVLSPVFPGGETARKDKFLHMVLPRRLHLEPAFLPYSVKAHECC
T2 sequence (Q12809 whole entry): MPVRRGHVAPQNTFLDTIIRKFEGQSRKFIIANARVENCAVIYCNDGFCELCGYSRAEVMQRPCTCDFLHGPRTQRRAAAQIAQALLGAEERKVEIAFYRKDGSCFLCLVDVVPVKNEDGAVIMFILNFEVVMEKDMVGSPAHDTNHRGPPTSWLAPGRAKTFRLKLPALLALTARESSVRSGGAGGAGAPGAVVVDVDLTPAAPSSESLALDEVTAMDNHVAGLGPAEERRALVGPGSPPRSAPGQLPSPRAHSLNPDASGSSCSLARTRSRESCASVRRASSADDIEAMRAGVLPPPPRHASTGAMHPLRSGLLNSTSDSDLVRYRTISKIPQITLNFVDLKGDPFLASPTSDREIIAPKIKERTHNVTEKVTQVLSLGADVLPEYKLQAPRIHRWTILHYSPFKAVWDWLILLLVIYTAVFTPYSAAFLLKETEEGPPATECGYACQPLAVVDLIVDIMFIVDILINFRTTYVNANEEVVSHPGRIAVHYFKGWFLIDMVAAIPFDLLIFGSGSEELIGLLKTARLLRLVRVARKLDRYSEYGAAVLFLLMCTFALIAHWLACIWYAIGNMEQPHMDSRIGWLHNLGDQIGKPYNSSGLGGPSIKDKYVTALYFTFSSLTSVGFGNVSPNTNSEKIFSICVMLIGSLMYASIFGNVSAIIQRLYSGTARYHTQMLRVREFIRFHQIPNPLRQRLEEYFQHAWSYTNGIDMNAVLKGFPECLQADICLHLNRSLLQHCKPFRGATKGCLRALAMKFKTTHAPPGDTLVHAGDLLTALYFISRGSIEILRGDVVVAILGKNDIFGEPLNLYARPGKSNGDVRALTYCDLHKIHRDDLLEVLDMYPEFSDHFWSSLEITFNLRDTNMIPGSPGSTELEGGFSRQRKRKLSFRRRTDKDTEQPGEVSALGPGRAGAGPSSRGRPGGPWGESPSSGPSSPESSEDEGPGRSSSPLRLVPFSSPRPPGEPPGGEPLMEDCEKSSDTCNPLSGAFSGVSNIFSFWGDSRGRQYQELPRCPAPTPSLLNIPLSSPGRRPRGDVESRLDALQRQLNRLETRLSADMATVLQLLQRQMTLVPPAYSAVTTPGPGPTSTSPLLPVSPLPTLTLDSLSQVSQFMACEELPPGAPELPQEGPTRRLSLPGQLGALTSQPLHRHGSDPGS

| Structure (SMILES) | IC50 [1] [µM] | EC50 [2] [µM] | CC50 at 4 days [3] [µM] | IC50 [4, 5] [µM] | IC50 [4] [µM] |
| --- | --- | --- | --- | --- | --- |
| CC1(F)CN(C(=O)Cn2c(=O)c(C(=O)NCc3ccc(Cl)cc3)cc3nc(N4CCCC4=O)cnc32)C1 [Compound 1, N-[(4-chlorophenyl)methyl]-5-[2-(3-fluoro-3-methylazetidin-1-yl)-2-oxoethyl]-6-oxo-2-(2-oxopyrrolidin-1-yl)-5,6-dihydropyrido[2,3-b]pyrazine-7-carboxamide] | < 1 | < 1 | < 20 | > 10 | – |
| CC1(F)CN(C(=O)Cn2c(=O)c(C(=O)NCc3ccc(Cl)cc3)cc3nc(N4CCOC4=O)cnc32)C1 [Compound 2, N-[(4-chlorophenyl)methyl]-5-[2-(3-fluoro-3-methylazetidin-1-yl)-2-oxoethyl]-6-oxo-2-(2-oxo-1,3-oxazolidin-3-yl)-5,6-dihydropyrido[2,3-b]pyrazine-7-carboxamide] | < 1 | < 1 | < 40 | < 10 | – |
| CN1CCN(c2cnc3c(cc(C(=O)NCc4ccc(Cl)cc4)c(=O)n3CC(=O)N3CC(C)(F)C3)n2)C1=O [Compound 3, N-[(4-chlorophenyl)methyl]-5-[2-(3-fluoro-3-methylazetidin-1-yl)-2-oxoethyl]-2-(3-methyl-2-oxoimidazolidin-1-yl)-6-oxo-5,6-dihydropyrido[2,3-b]pyrazine-7-carboxamide] | < 1 | < 1 | > 40 | > 10 | – |
| CC1CCN(c2cnc3c(cc(C(=O)NCc4ccc(Cl)cc4)c(=O)n3CC(=O)N3CC(C)(F)C3)n2)C1=O (stereo not drawn) [Compound 4, N-[(4-chlorophenyl)methyl]-5-[2-(3-fluoro-3-methylazetidin-1-yl)-2-oxoethyl]-2-(3-methyl-2-oxopyrrolidin-1-yl)-6-oxo-5,6-dihydropyrido[2,3-b]pyrazine-7-carboxamide] | < 1 | < 1 | > 40 | < 10 | – |
| CC1(F)CN(C(=O)Cn2c(=O)c(C(=O)NCc3ccc(Cl)cc3)cc3nc(N4CCN(CCN)C4=O)cnc32)C1 [Compound 6] | < 1 | < 1 | > 40 | > 10 | – |
| CC1(F)CN(C(=O)Cn2c(=O)c(C(=O)NCc3ccc(Cl)cc3)cc3nc(N4CCNC4=O)cnc32)C1 [Compound 12, N-[(4-chlorophenyl)methyl]-5-[2-(3-fluoro-3-methylazetidin-1-yl)-2-oxoethyl]-6-oxo-2-(2-oxoimidazolidin-1-yl)-5,6-dihydropyrido[2,3-b]pyrazine-7-carboxamide] | < 1 | < 1 | > 40 | > 10 | – |
| CC1(F)CN(C(=O)Cn2c(=O)c(C(=O)NCc3ccc(Cl)cc3)cc3nc(N4CCN(CC(=O)O)C4=O)cnc32)C1 [Compound 13, [3-(7-{[(4-chlorophenyl)methyl]carbamoyl}-5-[2-(3-fluoro-3-methylazetidin-1-yl)-2-oxoethyl]-6-oxo-5,6-dihydropyrido[2,3-b]pyrazin-2-yl)-2-oxoimidazolidin-1-yl]acetic acid] | < 1 | > 1 | > 40 | > 10 | – |
| CN1C(=O)CN(c2cnc3c(cc(C(=O)NCc4ccc(Cl)cc4)c(=O)n3CC(=O)N3CC(C)(F)C3)n2)C1=O [Compound 14, N-[(4-chlorophenyl)methyl]-5-[2-(3-fluoro-3-methylazetidin-1-yl)-2-oxoethyl]-2-(3-methyl-2,4-dioxoimidazolidin-1-yl)-6-oxo-5,6-dihydropyrido[2,3-b]pyrazine-7-carboxamide] | < 1 | > 1 | > 40 | > 10 | – |
| CN1C(=O)CN(c2cnc3c(cc(C(=O)NCc4ccc(Cl)cc4)c(=O)n3CC(=O)N3CC4(CC4)C3)n2)C1=O [Compound 15, 5-[2-(5-azaspiro[2.3]hexan-5-yl)-2-oxoethyl]-N-[(4-chlorophenyl)methyl]-2-(3-methyl-2,4-dioxoimidazolidin-1-yl)-6-oxo-5,6-dihydropyrido[2,3-b]pyrazine-7-carboxamide] | < 1 | < 1 | > 40 | – | < 10 |
| O=C(O)CN1CCN(c2cnc3c(cc(C(=O)NCc4ccc(Cl)cc4)c(=O)n3CC(=O)N3CC4(CC4)C3)n2)C1=O [Compound 20, [3-(5-[2-(5-azaspiro[2.3]hexan-5-yl)-2-oxoethyl]-7-{[(4-chlorophenyl)methyl]carbamoyl}-6-oxo-5,6-dihydropyrido[2,3-b]pyrazin-2-yl)-2-oxoimidazolidin-1-yl]acetic acid] | – | > 1 | > 40 | > 10 | – |
